Experimental data: patent US8470526B2, “Method of suppressing human immunodeficiency virus (HIV) replication in a subject by administering a liver X receptor (LXR) agonist” (The George Washington University, priority 2005, dated 2013)

What was measured:
Format in all cases: cell-based
[1] = test system: HIV-1 ADA virions; assay: Analysis of virion-associated cholesterol ([3H]cholesterol incorporation into virions); conditions: virions from macrophages treated with 500 nM TO-901317 versus untreated cells; normalized according to p24
Description: C—Incorporation of [^3H]cholesterol into virions produced by LXR agonist-treated and untreated (control) cells was measured in triplicate and results (mean±SD) are presented relative to cholesterol in the virions produced by control cells; *p<0.001.
(§1) To determine whether impairment of cholesterol efflux has a role in HIV biology, we compared infectivity of HIV virions produced from monocyte-derived macrophages stimulated or not with an LXR agonist, TO-901317. We hypothesized that if impairment of cholesterol efflux is a specific mechanism to increase HIV replication, then agents counteracting this effect should have anti-HIV activity. LXR agonists up-regulate expression of ABCA1 at a transcriptional level and stimulate cholesterol efflux from various cell types, including human monocyte-derived macrophages ([47] and FIG. 9A). […] Virions were collected from TO-901317-treated and untreated cells, adjusted according to p24 content, and analyzed for infectivity using indicator P4-CCR5 cells.
Analysis of virion-associated cholesterol. […] Culture supernatants were collected every 3 days over the period of 2 weeks, pooled, and virions were pelleted by ultracentrifugation, normalized according to p24 value, and the amount of incorporated [^3H]cholesterol counted on a beta-counter.

[2] = test system: Human monocyte-derived macrophages infected with HIV-1 ADA; assay: Cholesterol efflux to apoA-I from HIV-1 ADA-infected monocyte-derived macrophages; conditions: TO-901317 500 nM added at day 7 after infection, kept 7 more days; efflux measured on day 21 after infection
Description: (§2) Human monocyte-derived macrophages were infected with HIV-1 ADA or mock-infected, and 7 days after infection were treated or not with LXR agonist, TO-901317 (500 nM), for 7 more days.
A—Cholesterol efflux to apoA-I was measured on day 21 after infection. *p<0.01 (versus uninfected cells not treated with TO-901317), *p<0.01 (versus HIV-infected cells not treated with TO-901317).
as §1
Cholesterol and phospholipid efflux from RAW264.7 cells. […] For cholesterol efflux analysis, aliquots of medium and cells were counted. […] The efflux was calculated as radioactivity in the medium/(radioactivity in the medium+radioactivity remaining in the cells)×100%. […]

[3] = test system: HIV-1 ADA; assay: Infectivity of virions from HIV-1 ADA-infected macrophages on indicator P4-CCR5 cells; conditions: TO-901317 500 nM from day 7 after infection for 7 more days; virions adjusted according to p24; versus virions from untreated cells
Description: as §2
B—Virions were collected from culture supernatants of LXR agonist-treated and untreated (control) cells on day 10 and day 14 (pooled together), adjusted according to p24 content and analyzed for infectivity on indicator P4-CCR5 cells. Experiment was performed in triplicate and results (mean±SD) are presented as percent infectivity of virions produced by control cells; *p<0.001.
as §1, with “activity.” for “activity. LXR agonists up-regulate expression of ABCA1 at a transcriptional level and stimulate cholesterol efflux from various cell types, including human monocyte-derived macrophages ([47] and FIG. 9A).”
Infectivity assay. Virus infectivity was analyzed using P4-CCR5 indicator cells that express B-galactosidase under control of HIV-1 LTR. […] The plate was incubated at 37° C. for 1.5 hours and OD readings were taken at 420 nm.

O=S(=O)(c1ccccc1)N(CC(F)(F)F)c1ccc(C(O)(C(F)(F)F)C(F)(F)F)cc1 [TO-901317]
virion-associated cholesterol [1]: significantly diminished
effect on impairment of cholesterol efflux to apoA-I by HIV-1 infection [2]: prevented the impairment of cholesterol efflux
reduction of infectivity of virions produced from macrophages treated with LXR agonist [3]: about 80%
